# Columns and labels:
# [1] = human, 10000 µM
# [2] = human, 40000 µM
# Description: Solubility ratio ([HbS+drug (40 mM)]/[HbS-drug])
# [3] = human, 20000 µM
# Description: Solubility ratio ([HbS+drug (20 mM)]/[HbS-drug]
# [4] = human, 5000 µM
# Description: Solubility ratio ([HbS+drug (5 mM)]/[HbS-drug])
smiles,measurement,setting,value
N[C@@H](Cc1ccccc1)C(=O)O [PHENYLALANINE],Solubility ratio,[1],1.048
same,Solubility ratio,[2],1.178
same,Solubility ratio,[3],1.093
same,Solubility ratio,[4],1.036
